Test results published in patent publication US8969310B2, “Potentiation of anticancer agents” (Angiochem Inc., priority 2005, dated 2015).
Where two headings read alike, the source gives them in different places.

How the values were obtained:
P-gp (human MDR1) = P-gp (human MDR1) (Homo sapiens, UniProt P08183); experiment: Accumulation in MDCK-MDR1 cells with or without cyclosporin A (P-gp substrate test)
Procedure: In order to determine whether the conjugates of the present invention were P-gp substrates or not, MDCK cells were stably transfected with human MDR1 (MDCK-MDR1) and were subsequently incubated with unconjugated-anticancer drug or with the conjugates of the present invention. […] After the incubation, cells were washed and accumulation of radioactivity inside the cells or intracellular fluorescence was quantified. The increased in the accumulation of these drugs is expressed in term of x-fold compared to their respective control measured in the absence of CsA. Thus, the control value for each drug was set to 1-fold.

LRP = molecular target: T1, LRP (Mus musculus, UniProt Q91ZX7); experiment: [125I]-RAP uptake in MEF-1 (LRP+) and PEA-13 (LRP-) fibroblasts; format: cell-based
T1 construct: endogenous in cells; host or cells: MEF-1 fibroblasts (LRP-positive), with PEA-13 fibroblasts (LRP-negative) as subtraction control
T1 sequence (Q91ZX7 20-4545): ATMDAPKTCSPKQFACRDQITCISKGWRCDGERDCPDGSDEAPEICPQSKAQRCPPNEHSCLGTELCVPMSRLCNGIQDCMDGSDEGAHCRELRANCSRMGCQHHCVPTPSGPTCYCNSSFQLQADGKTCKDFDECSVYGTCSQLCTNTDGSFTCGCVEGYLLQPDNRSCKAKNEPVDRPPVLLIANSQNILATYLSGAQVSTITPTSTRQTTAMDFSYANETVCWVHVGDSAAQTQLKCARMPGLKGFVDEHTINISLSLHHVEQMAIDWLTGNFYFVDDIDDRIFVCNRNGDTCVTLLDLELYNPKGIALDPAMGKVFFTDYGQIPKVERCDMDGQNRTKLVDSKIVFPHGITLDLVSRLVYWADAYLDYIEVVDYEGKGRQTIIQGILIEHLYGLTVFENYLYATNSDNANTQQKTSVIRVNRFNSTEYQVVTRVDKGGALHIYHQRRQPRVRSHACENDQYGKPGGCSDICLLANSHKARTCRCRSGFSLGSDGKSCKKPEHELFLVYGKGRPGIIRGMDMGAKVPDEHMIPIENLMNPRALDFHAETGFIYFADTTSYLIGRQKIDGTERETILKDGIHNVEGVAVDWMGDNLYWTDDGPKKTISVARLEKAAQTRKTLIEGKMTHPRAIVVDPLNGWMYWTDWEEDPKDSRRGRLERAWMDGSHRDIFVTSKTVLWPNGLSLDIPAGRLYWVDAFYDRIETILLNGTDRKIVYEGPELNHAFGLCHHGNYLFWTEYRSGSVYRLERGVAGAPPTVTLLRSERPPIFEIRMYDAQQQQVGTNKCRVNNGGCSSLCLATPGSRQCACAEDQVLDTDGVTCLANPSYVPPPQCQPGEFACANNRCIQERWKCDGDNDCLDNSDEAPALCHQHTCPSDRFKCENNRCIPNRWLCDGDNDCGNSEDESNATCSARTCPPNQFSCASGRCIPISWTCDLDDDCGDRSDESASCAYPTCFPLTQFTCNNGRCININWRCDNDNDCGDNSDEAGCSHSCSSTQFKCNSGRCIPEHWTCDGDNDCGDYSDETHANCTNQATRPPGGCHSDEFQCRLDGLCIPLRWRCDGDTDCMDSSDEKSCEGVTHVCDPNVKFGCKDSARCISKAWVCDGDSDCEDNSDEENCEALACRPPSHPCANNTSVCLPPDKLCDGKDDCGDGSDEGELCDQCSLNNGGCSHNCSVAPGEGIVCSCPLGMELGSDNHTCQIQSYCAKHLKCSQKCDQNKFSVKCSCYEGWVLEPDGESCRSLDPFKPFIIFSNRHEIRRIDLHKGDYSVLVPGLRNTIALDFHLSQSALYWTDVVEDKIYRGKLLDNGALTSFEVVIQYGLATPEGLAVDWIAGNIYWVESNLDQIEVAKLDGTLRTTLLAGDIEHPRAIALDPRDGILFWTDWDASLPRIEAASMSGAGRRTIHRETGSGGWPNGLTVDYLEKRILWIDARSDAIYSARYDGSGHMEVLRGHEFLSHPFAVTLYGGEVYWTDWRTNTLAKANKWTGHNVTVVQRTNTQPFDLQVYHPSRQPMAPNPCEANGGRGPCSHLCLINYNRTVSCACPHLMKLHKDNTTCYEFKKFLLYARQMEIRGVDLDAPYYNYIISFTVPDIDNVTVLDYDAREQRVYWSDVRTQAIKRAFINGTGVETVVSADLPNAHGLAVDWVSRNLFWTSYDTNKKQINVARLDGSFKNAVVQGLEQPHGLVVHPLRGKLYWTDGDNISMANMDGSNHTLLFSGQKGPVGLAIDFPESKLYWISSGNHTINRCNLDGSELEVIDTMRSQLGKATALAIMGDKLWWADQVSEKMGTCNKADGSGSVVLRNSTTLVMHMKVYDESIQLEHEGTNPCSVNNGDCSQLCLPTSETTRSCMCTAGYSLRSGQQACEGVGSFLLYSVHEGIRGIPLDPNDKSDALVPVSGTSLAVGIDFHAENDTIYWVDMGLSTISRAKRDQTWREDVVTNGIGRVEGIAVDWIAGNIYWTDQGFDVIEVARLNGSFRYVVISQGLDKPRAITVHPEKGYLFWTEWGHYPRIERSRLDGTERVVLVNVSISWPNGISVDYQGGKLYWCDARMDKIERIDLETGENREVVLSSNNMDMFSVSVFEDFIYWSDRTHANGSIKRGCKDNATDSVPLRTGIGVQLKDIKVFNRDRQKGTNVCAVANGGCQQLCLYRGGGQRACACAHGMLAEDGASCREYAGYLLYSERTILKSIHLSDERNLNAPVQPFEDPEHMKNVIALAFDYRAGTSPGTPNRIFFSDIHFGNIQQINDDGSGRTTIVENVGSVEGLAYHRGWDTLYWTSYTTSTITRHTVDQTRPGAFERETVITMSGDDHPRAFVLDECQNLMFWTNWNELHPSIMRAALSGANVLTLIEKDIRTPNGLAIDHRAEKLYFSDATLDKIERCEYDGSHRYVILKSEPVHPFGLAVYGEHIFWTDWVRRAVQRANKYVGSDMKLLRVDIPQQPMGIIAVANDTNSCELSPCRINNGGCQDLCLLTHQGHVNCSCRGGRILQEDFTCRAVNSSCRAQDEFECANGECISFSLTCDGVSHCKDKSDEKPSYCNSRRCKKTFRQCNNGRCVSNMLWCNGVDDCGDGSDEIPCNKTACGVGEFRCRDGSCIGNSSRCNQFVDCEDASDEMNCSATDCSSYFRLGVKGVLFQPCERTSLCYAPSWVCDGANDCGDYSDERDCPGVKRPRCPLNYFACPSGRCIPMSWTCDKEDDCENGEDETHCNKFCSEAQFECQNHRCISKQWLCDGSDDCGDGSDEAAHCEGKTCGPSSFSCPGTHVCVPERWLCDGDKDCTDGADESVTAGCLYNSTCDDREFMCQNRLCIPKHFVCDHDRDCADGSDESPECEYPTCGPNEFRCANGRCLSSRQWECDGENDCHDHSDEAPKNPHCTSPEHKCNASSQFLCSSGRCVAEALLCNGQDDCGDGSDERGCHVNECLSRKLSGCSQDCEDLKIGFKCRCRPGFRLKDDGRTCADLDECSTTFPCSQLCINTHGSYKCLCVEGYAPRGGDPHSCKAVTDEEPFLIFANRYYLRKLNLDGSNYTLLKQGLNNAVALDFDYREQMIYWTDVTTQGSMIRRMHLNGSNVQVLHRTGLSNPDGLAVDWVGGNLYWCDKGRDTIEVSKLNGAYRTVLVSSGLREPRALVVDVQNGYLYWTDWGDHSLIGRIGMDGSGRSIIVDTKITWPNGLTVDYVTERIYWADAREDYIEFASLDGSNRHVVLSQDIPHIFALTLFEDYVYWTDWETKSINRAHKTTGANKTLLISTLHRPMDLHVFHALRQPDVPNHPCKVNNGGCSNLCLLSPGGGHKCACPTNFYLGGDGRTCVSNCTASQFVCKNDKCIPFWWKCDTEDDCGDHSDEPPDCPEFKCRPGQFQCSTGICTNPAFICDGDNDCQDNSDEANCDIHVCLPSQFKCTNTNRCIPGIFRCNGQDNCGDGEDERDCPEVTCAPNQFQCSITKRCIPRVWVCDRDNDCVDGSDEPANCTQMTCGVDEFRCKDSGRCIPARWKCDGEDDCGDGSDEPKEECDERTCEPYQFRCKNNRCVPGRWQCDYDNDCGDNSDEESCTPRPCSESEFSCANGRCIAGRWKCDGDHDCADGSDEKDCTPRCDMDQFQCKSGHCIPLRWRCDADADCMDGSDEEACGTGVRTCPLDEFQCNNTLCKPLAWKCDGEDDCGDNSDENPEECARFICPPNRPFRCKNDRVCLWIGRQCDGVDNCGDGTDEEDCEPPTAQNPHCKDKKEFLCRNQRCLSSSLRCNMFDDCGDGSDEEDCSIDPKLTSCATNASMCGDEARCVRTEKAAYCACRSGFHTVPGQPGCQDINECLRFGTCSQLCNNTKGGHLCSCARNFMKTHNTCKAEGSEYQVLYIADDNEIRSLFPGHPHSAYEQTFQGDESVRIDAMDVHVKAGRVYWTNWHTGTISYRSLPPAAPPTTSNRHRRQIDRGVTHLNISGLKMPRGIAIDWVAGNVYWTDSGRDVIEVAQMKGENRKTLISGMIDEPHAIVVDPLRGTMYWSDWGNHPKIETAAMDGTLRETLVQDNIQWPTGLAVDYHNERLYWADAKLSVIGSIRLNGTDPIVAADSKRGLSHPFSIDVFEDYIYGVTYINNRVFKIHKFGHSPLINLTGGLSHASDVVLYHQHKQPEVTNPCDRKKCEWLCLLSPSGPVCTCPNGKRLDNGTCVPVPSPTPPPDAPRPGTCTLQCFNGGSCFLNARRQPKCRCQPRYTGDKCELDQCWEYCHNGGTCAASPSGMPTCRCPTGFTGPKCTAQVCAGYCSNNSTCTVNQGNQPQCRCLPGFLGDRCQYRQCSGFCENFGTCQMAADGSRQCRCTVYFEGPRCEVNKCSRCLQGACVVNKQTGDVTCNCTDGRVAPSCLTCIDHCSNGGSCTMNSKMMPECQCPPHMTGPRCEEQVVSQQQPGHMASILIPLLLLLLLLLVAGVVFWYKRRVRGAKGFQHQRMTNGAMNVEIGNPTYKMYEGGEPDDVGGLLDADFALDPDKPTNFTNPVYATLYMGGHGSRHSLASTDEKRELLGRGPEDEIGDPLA
Procedure: The LRP-dependent accumulation of [^125I]-RAP was calculated by substracted the results for the uptake obtained with PEA-13 cells from the results obtained with MEF-1;

[1] = In situ mouse brain perfusion; settings: 5 min perfusion, [125I]-labelled, FIG. 7
Procedure: (§2) Briefly, the right common carotid of ketamine/xylazine (140/8 mg/kg i.p.) anesthetized mice was exposed and ligated at the level of the bifurcation of the common carotid, rostral to the occipital artery. The common carotid was then catheterized rostrally with polyethylene tubing filled with heparin (25 U/ml) and mounted on a 26-gauge needle. […] Prior to the perfusion, the contralateral blood flow contribution was eliminated by severing heart ventricles. […] Mice were then decapitated to terminate perfusion and the right hemisphere was isolated on ice before being subjected to capillary depletion.
(§3) After perfusion, the brain was further perfused for 60 sec with Ringer solution to wash the excess of radiolabeled molecules and then the right hemisphere was isolated on ice before being subjected to capillary depletion.

[2] = mouse, in vivo
Procedure: as §2, §3

[3] = test system: NCI-H460 lung carcinoma cells; experiment: Cell proliferation assay ([3H]-thymidine incorporation), NCI-H460; format: cell-based; settings: for IC50: Homo sapiens
[4] = test system: MDA-MB-231 breast cancer cell line; experiment: In vitro cytotoxicity, MDA-MB-231; format: cell-based
[5] = test system: RBE4 endothelial cells from rat brain; experiment: Cell proliferation assay, RBE4; format: cell-based; settings: read-out: IC50, effect on cell proliferation
U-118 glioblastoma cells = experiment: Cell proliferation assay ([3H]-thymidine incorporation), U-118; format: cell-based; settings: read-out: IC50, effect on cell proliferation
[6] = test system: HCC1954 breast cancer cell line; experiment: In vitro cytotoxicity, HCC1954; format: cell-based
[7] = test system: Calu-3 lung carcinoma cells; experiment: Cell proliferation assay, Calu-3; format: cell-based; settings: Homo sapiens, read-out: IC50, effect on cell proliferation
[8] = comparator products; data based on rat GLP toxicity programs; cited from earlier work
[9] = Tissue distribution and pharmacokinetics after i.v. bolus (AUC0-4); format: in vivo, mice; settings: equivalent to 5 mg/kg of Taxol
Procedure: The unconjugated anticancer drug and the conjugates were injected intra-veinously (i.v.) in mice as a bolus. Tissues were collected at different times (0.25, 0.5, 1 and 4 hrs) and homogenized. […] Radioactivity associated with the tissues was therefore quantified. The area under the curve (AUC0-4) was estimated using the Prism software and was plotted for the different tissues (FIG. 10).

[10] = test system: SK-HEP-1 hepatocarcinoma cells; experiment: In vitro cytotoxicity, SK-HEP-1; format: cell-based, human
U-87 glioblastoma cells = experiment: Cell proliferation assay ([3H]-thymidine incorporation), U-87; format: cell-based, human; settings: for IC50: Homo sapiens
Procedure: (§1) For the in vitro cell proliferation assay, between 2.5 and 5×10^4 of U87 or A549 cells were seeded in a 24 well tissue culture microplate in a final volume of 1 ml of medium with 10% serum and incubated for 24 hours at 37° C. and 5% CO2. The medium was then replaced with serum-free medium and incubated overnight. The next morning the drug was freshly dissolved in dimethyl sulfoxide (DMSO) and the medium was replaced with complete medium containing the drug at different concentrations in triplicates. The final concentration of DMSO was 0.1%. The control used is a microplate well with cells and without drug. The cells were incubated for 48 to 72 hrs at 37° C. and 5% CO2. After the incubation, the medium was changed and replaced with 1 ml of complete medium containing [^3H]-thymidine (1 μCi/assay). The plate was incubated at 37° C. and 5% CO2 for 4 hrs. The medium was removed and the cells washed with PBS heated at 37° C. The cells were fixed with a mix of ethanol:acetic acid (3;1), then washed with water and precipitated 3 times with 10% of ice-cold TCA (trichloroacetic acid). Finally 500 μl of PCA (perchloric acid) were added to the wells and the microplates were heated for 30 min at 65° C. and 30 min at 75° C. The contents of each well was then transferred in a scintillation vial with 10 ml of scintillation cocktail and the activity was measured in CPM (count per minute) on a liquid scintillation counter Tri-Carb from Packard.
The anti-proliferatice activity of the conjugate against cancer cells in vitro was further assessed.

[11] = test system: A549 lung carcinoma cells; experiment: Cell proliferation assay ([3H]-thymidine incorporation), A549; format: cell-based; settings: Homo sapiens, read-out: IC50, effect on cell proliferation
Procedure: as §1, with “Finally 500 μl of PCA (perchloric acid) were added to the wells and the microplates were heated for 30 min at 65° C. and 30 min at 75° C.” left out, “Packard. […]” for “Packard.”

[12] = Preliminary comparative toxicity in beagle dogs
NCI-H460 cell-cycle = experiment: NCI-H460 cell cycle measured by FACS; format: cell-based; settings: NCI-H460, 24 hrs; Taxol 100 nM, TxlAn2 conjugate 30 nM
[13] = test system: BT-474 breast cancer cell line; experiment: In vitro cytotoxicity, BT-474; format: cell-based
[14] = test system: MDA-MB-468 breast cancer cell line; experiment: In vitro cytotoxicity, MDA-MB-468; format: cell-based
[15] = test system: NCI-H460 subcutaneous tumor; experiment: Subcutaneous NCI-H460 tumor growth; format: in vivo, mice; settings: i.v.
Procedure: Briefly, mice received a subcutaneous injection of 2.5×10^6 human U87 glioma cells or NCI-H460 cells. […] Treatments were then administered twice a week until animals were sacrificed. Mice were monitored every day for clinical symptoms and weight loss. Tumor volume was estimated with a kaliper and the following equation (tumor volume=π/2×(length (mm)×width^2 (mm)).
In the first subcutaneous tumor growth study, NCI-H460 cells were implanted in mice right flank (FIG. 22A).

[16] = various aprotinin concentrations

rhodamine
Increase in accumulation in the presence of CsA, x-fold of control without CsA (P-gp (human MDR1); MDCK-MDR1, 1 hr 37° C., 10 μM cyclosporin A): 7.5 fold
P-gp substrate or not (P-gp (human MDR1); MDCK-MDR1, with or without CsA): are P-gp substrates

aprotinin
LRP-dependent accumulation of [125I]-RAP (MEF-1 minus PEA-13) (LRP; excess, 25 μM, FIG. 18): affect the LRP-dependent accumulation of [^125I]-RAP
Uptake of [125I]-RAP in LRP-negative cells (PEA-13) (LRP; [16]): almost unaffected
Uptake of [125I]-RAP in LRP-positive cells (MEF-1) (LRP; [16]): inhibited the transport of [^125I]-RAP in positive LRP cells in a dose-dependent manner
Initial brain uptake (transport rate) compared with transferrin [1]: highest initial transport rate than transferrin

C[C@@H](O)[C@H](N)C(=O)N[C@@H](Cc1ccccc1)C(=O)N[C@@H](Cc1ccccc1)C(=O)N[C@@H](Cc1ccc(O)cc1)C(=O)NCC(=O)NCC(=O)N[C@@H](CO)C(=O)N[C@@H](CCCNC(=N)N)C(=O)NCC(=O)N[C@@H](CCCCN)C(=O)N[C@@H](CCCNC(=N)N)C(=O)N[C@@H](CC(N)=O)C(=O)N[C@@H](CC(N)=O)C(=O)N[C@@H](Cc1ccccc1)C(=O)N[C@@H](CCCCN)C(=O)N[C@H](C(=O)N[C@@H](CCC(=O)O)C(=O)N[C@@H](CCC(=O)O)C(=O)N[C@@H](Cc1ccc(O)cc1)C(=O)O)[C@@H](C)O [Angiopep-2]
Accumulation into brain parenchyma compared with vascular marker [14C]-inulin [2]: higher than that of the vascular marker

CC(=O)O[C@H]1C(=O)[C@@]2(C)[C@H]([C@H](OC(=O)c3ccccc3)[C@]3(O)C[C@H](OC(=O)[C@H](O)[C@@H](NC(=O)c4ccccc4)c4ccccc4)C(C)=C1C3(C)C)[C@]1(OC(C)=O)CO[C@@H]1C[C@@H]2O [Taxol]
IC50 ([3]; NCI-H460, read-out: IC50, effect on cell proliferation): 9.3 nM
IC50 ([3]; NCI-H460, Table 3B, read-out: IC50 (nM) Mean): 6.61 nM
Residual survival % Mean ([3]; NCI-H460): 24.98%
Residual survival % Mean [4]: 45.62%
IC50 ([4]; Homo sapiens): 17.6 nM
IC50 [5]: 137 nM
IC50 (U-118 glioblastoma cells): 7.2 nM
Residual survival % Mean [6]: 48.82%
IC50 ([6]; Homo sapiens): 6.12 nM
IC50 [7]: 17.2 nM
MTD [8]: 8 mg/kg
AUC 0-4 ([9]; Brain): 0.07 μg/g of tissue
AUC 0-4 ([9]; Eye): 0.57 μg/g of tissue
AUC 0-4 ([9]; Heart): 2.5 μg/g of tissue
AUC 0-4 ([9]; Kidney): 8.0 μg/g of tissue
AUC 0-4 ([9]; Liver): 22 μg/g of tissue
AUC 0-4 ([9]; Lung): 1.1 μg/g of tissue
Residual survival % Mean [10]: 55.18%
IC50 ([10]; Homo sapiens, SK-HEP1): 8.84 nM
IC50 (U-87 glioblastoma cells; 72 h, read-out: IC50, proliferation of glioblastoma cells (U-87)): ~10 nM
IC50 (U-87 glioblastoma cells; read-out: IC50, effect on cell proliferation): 9.5 nM
IC50 (U-87 glioblastoma cells; U-87 MG, Table 3B, read-out: IC50 (nM) Mean): 12.9 nM
Residual survival % Mean (U-87 glioblastoma cells; U-87 MG): 40.35%
IC50 [11]: 3.6 nM
Platelets ([12]; 4-days post-treatment): 200 ×109 cells/L
Reticulocytes ([12]; 4-days post-treatment): 0.011 ×1012 cells/L
White Blood Cells ([12]; 4-days post-treatment): 4.3 ×109 cells/L
Platelets ([12]; 8-days post treatment): 340 ×109 cells/L
Reticulocytes ([12]; 8-days post treatment): 0.11 ×1012 cells/L
White Blood Cells ([12]; 8-days post treatment): 8.7 ×109 cells/L
Platelets ([12]; Pre-treatment): 250 ×109 cells/L
Reticulocytes ([12]; Pre-treatment): 0.031 ×1012 cells/L
White Blood Cells ([12]; Pre-treatment): 9.7 ×109 cells/L
Effect on cell cycle (NCI-H460 cell-cycle): induce a blockade of NCI-H460 cell in G2/M phase
Residual survival % Mean [13]: 52.24%
IC50 ([13]; Homo sapiens, Table 3B): 62.9 nM
Residual survival % Mean [14]: 54.26%
IC50 ([14]; Homo sapiens): 13.5 nM
P-gp substrate or not (P-gp (human MDR1); MDCK-MDR1): are P-gp substrates
Tumor growth Δ ([15]; Day 0 to Day 11): 371 ± 58 mm^3
T/C ([15]; Day 11): 62%
Tumor volume, Day 0 ([15]; baseline, equivalent of 10 mg/kg of Taxol): 112 ± 12 mm^3
Tumor volume, Day 11 ([15]; equivalent of 10 mg/kg of Taxol, twice a week): 483 ± 63 mm^3

CC[C@]1(O)C[C@@H]2CN(CCc3c([nH]c4ccccc34)[C@@](C(=O)OC)(c3cc4c(cc3OC)N(C)[C@H]3[C@@](O)(C(=O)OC)[C@H](OC(C)=O)[C@]5(CC)C=CCN6CC[C@]43[C@@H]65)C2)C1 [vinblastine]
P-gp substrate or not (P-gp (human MDR1); MDCK-MDR1): are P-gp substrates
